# ± gives the standard deviation of the averaged measurements.
# Compound: T1, CC(=O)O[C@H]1C(=O)[C@@]2(C)[C@H]([C@H](OC(=O)c3ccccc3)[C@]3(O)C[C@H](OC(=O)[C@H](O)[C@@H](NC(=O)c4ccccc4)c4ccccc4)C(C)=C1C3(C)C)[C@]1(OC(C)=O)CO[C@@H]1C[C@@H]2O [PACLITAXEL]
# Experiment: surviving fraction relative to DMSO-only wells; higher = less growth inhibition
# Settings: 1000 nM; exposure time: 5 days
# Summary of the method: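 Viability was determined by CellTiter-Glo luminescence, expressed as surviving fraction normalised to the median of DMSO-only wells. The cells were log-phase tumour cell lines seeded at 250–500 per well in 384-well plates and, after 24 hours, exposed continuously for five days to inhibitors at 0.5, 1, 5, 10, 50, 100, 500 and 1000 nM. Three screens per line were run, keeping only lines with replicate Pearson r >0.7 and median Z' >0.3.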
row,Test System,surviving fraction
1,MFM223 BREAST,0.0632 ± 0.0075
2,SG27 HEADNECK,0.849 ± 0.068
3,ZR751 BREAST,0.449 ± 0.023
4,MG63 BONE,0.03 ± 0.002
5,HS57T BREAST,0.0403 ± 0.007
6,SUM159 BREAST,0.137 ± 0.02
7,MDAMB453 BREAST,0.134 ± 0.015
8,HMLE3 BREAST,0.0287 ± 0.0011
9,HCC70 BREAST,0.0647 ± 0.031
10,VCAP PROSTATE,0.0697 ± 0.0086

# Compound: CC(=O)NCC(=O)N1[C@@H]2CC[C@H]1c1ccc(Nc3ncc(C(F)(F)F)c(NC4CCC4)n3)cc12
# Experiment: area under dose-response curve of surviving fraction (unscaled, Aref=0) (surviving fraction x log10(nM)); higher = more resistant
# Settings: exposure time: 5 days; dose range 0.5-1000 nM
# Summary of the method: (§1)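 Inhibitor was applied to tumour cell lines at eight concentrations (0.5 to 1000 nM) for five days in 384-well plates. Luminescence from CellTiter-Glo, scaled to DMSO-only wells, gave surviving fractions in three screens per line, and these were fitted by 3-parameter logistic regression with the drc R package. The area under the curve is an unscaled activity area. Aref was 0, and dose was on a log10 scale.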
row,Test System,area under dose-response curve
1,JURKAT HAEMATOPOIETIC AND LYMPHOID TISSUE,2.31
2,SJSA1 BONE,3.02
3,YAMATO SYNOVIAL,2.87
4,SCC003 HEADNECK,2.69
5,BT549 BREAST,2.58
6,HT1080 SOFT TISSUE,2.39
7,MDAMB157 BREAST,2.36
8,143B BONE,2.93
9,SIHA CERVIX,2.88
10,SG32 HEADNECK,2.57
11,SG31 HEADNECK,2.85
12,VP229 BREAST,2.78
13,RDES SOFT TISSUE,2.44
14,LM7 BONE,2.54
15,SNU475 LIVER,2.85
16,ASKA SYNOVIAL,2.15
17,CADOES1 SOFT TISSUE,2.12
18,BT20 BREAST,2.05
19,SUM44 BREAST,3.75
20,CHLA90 AUTONOMIC GANGLIA,2.51
21,HCC78 LUNG,2.33
22,MFM223 BREAST,2.67
23,SG27 HEADNECK,3.14
24,ZR751 BREAST,2.96
25,MG63 BONE,2.52
26,SUM159 BREAST,2.79
27,MDAMB453 BREAST,2.73
28,HMLE3 BREAST,2.59
29,HCC70 BREAST,2.46
30,VCAP PROSTATE,2.52

# Compound: T1, PACLITAXEL
# Experiment: as above
# Settings: exposure time: 5 days; dose range 0.5-1000 nM
# Summary of the method: as §1
row,Test System,area under dose-response curve
1,JURKAT HAEMATOPOIETIC AND LYMPHOID TISSUE,0.401
2,SJSA1 BONE,1.01
3,YAMATO SYNOVIAL,1.69
4,SCC003 HEADNECK,1.13
5,NOS1 BONE,1.13
6,BT549 BREAST,0.396
7,HT1080 SOFT TISSUE,0.5
8,MDAMB157 BREAST,0.654
9,143B BONE,1.1
10,SIHA CERVIX,0.974
11,SG32 HEADNECK,1.08
12,SG31 HEADNECK,1.44
13,VP229 BREAST,1.56
14,RDES SOFT TISSUE,1.03
15,LM7 BONE,0.746
16,SNU475 LIVER,0.893

row,Test System,area under dose-response curve
1,ASKA SYNOVIAL,0.983
2,CADOES1 SOFT TISSUE,1.87
3,BT20 BREAST,0.614
4,SUM44 BREAST,1.04
5,CHLA90 AUTONOMIC GANGLIA,1.13
6,HCC78 LUNG,0.585
7,MFM223 BREAST,0.825
8,SG27 HEADNECK,3.02
9,ZR751 BREAST,1.6
10,MG63 BONE,0.809
11,SUM159 BREAST,1.29
12,MDAMB453 BREAST,1.23
13,HMLE3 BREAST,0.754
14,HCC70 BREAST,0.799
15,VCAP PROSTATE,0.687

# Compound: CC(=O)c1c(C)c2cnc(Nc3ccc(N4CCNCC4)cn3)nc2n(C2CCCC2)c1=O
# Experiment: as above
# Settings: exposure time: 5 days; dose range 0.5-1000 nM
# Summary of the method: as §1
row,Test System,area under dose-response curve
1,SJSA1 BONE,3.43
2,YAMATO SYNOVIAL,3.92
3,SCC003 HEADNECK,3.56
4,NOS1 BONE,3.53
5,HT1080 SOFT TISSUE,3.28
6,MDAMB157 BREAST,3.21
7,143B BONE,3.53
8,SG31 HEADNECK,3.36
9,LM7 BONE,3.43
10,SNU475 LIVER,3.4
11,CADOES1 SOFT TISSUE,2.79
12,SUM44 BREAST,3.41
13,CHLA90 AUTONOMIC GANGLIA,3.14
14,SG27 HEADNECK,3.52
15,ZR751 BREAST,3.47
16,MG63 BONE,3.25
17,SUM159 BREAST,3.03
18,MDAMB453 BREAST,3.52
19,HMLE3 BREAST,3.23
20,HCC70 BREAST,3.53

# Compound: CC[C@@]1(O)C(=O)OCc2c1cc1n(c2=O)Cc2cc3ccccc3nc2-1 [CAMPTOTHECIN]
# Experiment: as above
# Settings: exposure time: 5 days; dose range 0.5-1000 nM
# Summary of the method: as §1
row,Test System,area under dose-response curve
1,JURKAT HAEMATOPOIETIC AND LYMPHOID TISSUE,0.802
2,SJSA1 BONE,3.83
3,YAMATO SYNOVIAL,0.991
4,SCC003 HEADNECK,1.77
5,NOS1 BONE,1.96
6,BT549 BREAST,0.714
7,HT1080 SOFT TISSUE,1.51
8,MDAMB157 BREAST,1.4
9,SIHA CERVIX,1.73
10,SG32 HEADNECK,0.888
11,CCK81 LARGE INTESTINE,1.63
12,SG31 HEADNECK,1.58
13,VP229 BREAST,1.81
14,RDES SOFT TISSUE,0.518
15,LM7 BONE,0.895
16,HMT3552 BREAST,1.48

row,Test System,area under dose-response curve
1,SNU475 LIVER,1.18
2,ASKA SYNOVIAL,0.904
3,CADOES1 SOFT TISSUE,0.642
4,BT20 BREAST,0.907
5,SUM44 BREAST,2.82
6,CHLA90 AUTONOMIC GANGLIA,1.21
7,HCC78 LUNG,0.338
8,MFM223 BREAST,1.92
9,SG27 HEADNECK,2.66
10,ZR751 BREAST,1.47
11,MG63 BONE,0.972
12,SUM159 BREAST,1.29
13,MDAMB453 BREAST,2.11
14,HMLE3 BREAST,0.888
15,HCC70 BREAST,1.9
16,VCAP PROSTATE,1.76

# Compound: COCC[n+]1c2c(n(Cc3cnccn3)c1C)C(=O)c1ccccc1C2=O [YM155]
# Experiment: as above
# Settings: exposure time: 5 days; dose range 0.5-1000 nM
# Summary of the method: as §1
row,Test System,area under dose-response curve
1,JURKAT HAEMATOPOIETIC AND LYMPHOID TISSUE,1.3
2,SJSA1 BONE,5.19
3,YAMATO SYNOVIAL,1.2
4,SCC003 HEADNECK,1.38
